From PubChem BioAssay AID2060610 (Molecular Pharmacology Branch, DTP, NCI, 2025)

System: 616215-338-R-J1-PDC complex spheroids, viability % test/control
Experiment: Anticancer human tumor 616215-338-R-J1-PDC patient-derived colon adenocarcinoma cell line growth inhibition [CLK]
Conditions: for IC50: curve of first compound; for viability, T/C: stronger effect = lower value
How it was run: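 Patient-derived tumor cells grown as complex spheroids with HUVEC endothelial cells and mesenchymal stem cells, treated with drug combinations. Concentrations descend in half-log steps from near clinical Cmax, or from 10 microM if Cmax unknown.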

[1] = second compound 0.0316 µM, first compound 0.0316 µM
[2] = second compound 0.0316 µM, first compound 0.1 µM
[3] = second compound 0.0316 µM, first compound 0.316 µM
[4] = second compound 0.0316 µM, first compound 1 µM
[5] = second compound 0.0316 µM, first compound 3.16 µM
[6] = second compound 0.0316 µM, first compound 10 µM
[7] = second compound 0.1 µM, first compound 0.0316 µM
[8] = second compound 0.1 µM, first compound 0.1 µM
[9] = second compound 0.1 µM, first compound 0.316 µM
[10] = second compound 0.1 µM, first compound 1 µM
[11] = second compound 0.1 µM, first compound 3.16 µM
[12] = second compound 0.1 µM, first compound 10 µM
[13] = second compound 0.316 µM, first compound 0.0316 µM
[14] = second compound 0.316 µM, first compound 0.1 µM
[15] = second compound 0.316 µM, first compound 0.316 µM
[16] = second compound 0.316 µM, first compound 1 µM
[17] = second compound 0.316 µM, first compound 3.16 µM
[18] = second compound 0.316 µM, first compound 10 µM
[19] = second compound 1 µM, first compound 0.0316 µM
[20] = second compound 1 µM, first compound 0.1 µM
[21] = second compound 1 µM, first compound 0.316 µM
[22] = second compound 1 µM, first compound 1 µM
[23] = second compound 1 µM, first compound 3.16 µM
[24] = second compound 1 µM, first compound 10 µM
[25] = second compound 3.16 µM, first compound 0.0316 µM
[26] = second compound 3.16 µM, first compound 0.1 µM
[27] = second compound 3.16 µM, first compound 0.316 µM
[28] = second compound 3.16 µM, first compound 1 µM
[29] = second compound 3.16 µM, first compound 3.16 µM
[30] = second compound 3.16 µM, first compound 10 µM
[31] = second compound 10 µM, first compound 0.0316 µM
[32] = second compound 10 µM, first compound 0.1 µM
[33] = second compound 10 µM, first compound 0.316 µM
[34] = second compound 10 µM, first compound 1 µM
[35] = second compound 10 µM, first compound 3.16 µM
[36] = second compound 10 µM, first compound 10 µM
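Note: spheroids exposed to agents for 7 days.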
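Throughout, for viability, T/C: 100% = DMSO vehicle wells.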

SMILES: COc1ccc([C@@H](O)c2cc(-c3ncnc4cc(N5CCOCC5)ccc34)c(F)cc2Cl)nn1 + CN1CCN(c2cc(C(=O)Nc3cc4cc(-c5cnn(C)c5)ccc4cn3)ccn2)CC1
- IC50 (second compound 0.0316 µM): > 10000 nM
- IC50 (second compound 0.1 µM): 9460 nM
- IC50 (second compound 0.316 µM): < 31.6 nM
- IC50 (second compound 1 µM): < 31.6 nM
- IC50 (second compound 3.16 µM): < 31.6 nM
- IC50 (second compound 10 µM): < 31.6 nM
- viability, T/C [1]: 105%
- viability, T/C [2]: 106%
- viability, T/C [3]: 105%
- viability, T/C [4]: 109%
- viability, T/C [5]: 111%
- viability, T/C [6]: 67.7%
- viability, T/C [7]: 122%
- viability, T/C [8]: 107%
- viability, T/C [9]: 104%
- viability, T/C [10]: 103%
- viability, T/C [11]: 88.4%
- viability, T/C [12]: 47.2%
- viability, T/C [13]: 25.2%
- viability, T/C [14]: 30.6%
- viability, T/C [15]: 25.9%
- viability, T/C [16]: 19.8%
- viability, T/C [17]: 17.9%
- viability, T/C [18]: 7.77%
- viability, T/C [19]: 0.11%
- viability, T/C [20]: 0.15%
- viability, T/C [21]: 1.72%
- viability, T/C [22]: 0.1%
- viability, T/C [23]: 0.59%
- viability, T/C [24]: 0.08%
- viability, T/C [25]: 0.09%
- viability, T/C [26]: 0.13%
- viability, T/C [27]: 0.15%
- viability, T/C [28]: 0.1%
- viability, T/C [29]: 0.14%
- viability, T/C [30]: 0.12%
- viability, T/C [31]: 0.11%
- viability, T/C [32]: 0.13%
- viability, T/C [33]: 0.18%
- viability, T/C [34]: 0.18%
- viability, T/C [35]: 1.74%
- viability, T/C [36]: 0.19%

SMILES: Nc1ccn(C2OC(CO)C(O)C2(F)F)c(=O)n1 (stereo unspecified) + CNC(=O)c1ccc(Nc2nc(OC3CCCC3)c3c(-c4ccc5nc(C)oc5c4)c[nH]c3n2)c(OC)c1
- IC50 (second compound 0.0316 µM): < 31.6 nM
- IC50 (second compound 0.1 µM): < 31.6 nM
- IC50 (second compound 0.316 µM): < 31.6 nM
- IC50 (second compound 1 µM): < 31.6 nM
- IC50 (second compound 3.16 µM): < 31.6 nM
- IC50 (second compound 10 µM): < 31.6 nM
- viability, T/C [1]: 21.9%
- viability, T/C [2]: 14.5%
- viability, T/C [3]: 18.9%
- viability, T/C [4]: 14.9%
- viability, T/C [5]: 20.3%
- viability, T/C [6]: 18.9%
- viability, T/C [7]: 18.2%
- viability, T/C [8]: 18.4%
- viability, T/C [9]: 16.8%
- viability, T/C [10]: 14.6%
- viability, T/C [11]: 21%
- viability, T/C [12]: 17.4%
- viability, T/C [13]: 22.1%
- viability, T/C [14]: 17.2%
- viability, T/C [15]: 18.1%
- viability, T/C [16]: 17.1%
- viability, T/C [17]: 18.7%
- viability, T/C [18]: 20.2%
- viability, T/C [19]: 18.7%
- viability, T/C [20]: 15.9%
- viability, T/C [21]: 16.9%
- viability, T/C [22]: 17.8%
- viability, T/C [23]: 16.6%
- viability, T/C [24]: 15.6%
- viability, T/C [25]: 19.1%
- viability, T/C [26]: 15.8%
- viability, T/C [27]: 18.6%
- viability, T/C [28]: 18.1%
- viability, T/C [29]: 21.9%
- viability, T/C [30]: 18.3%
- viability, T/C [31]: 21.8%
- viability, T/C [32]: 15%
- viability, T/C [33]: 18.6%
- viability, T/C [34]: 18.2%
- viability, T/C [35]: 23.1%
- viability, T/C [36]: 17.9%

SMILES: O=C(c1cc(Cc2n[nH]c(=O)c3ccccc23)ccc1F)N1CCN(C(=O)C2CC2)CC1 + CNC(=O)c1ccc(Nc2nc(OC3CCCC3)c3c(-c4ccc5nc(C)oc5c4)c[nH]c3n2)c(OC)c1
- IC50 (second compound 0.0316 µM): > 10000 nM
- IC50 (second compound 0.1 µM): > 10000 nM
- IC50 (second compound 0.316 µM): < 31.6 nM
- IC50 (second compound 1 µM): < 31.6 nM
- IC50 (second compound 3.16 µM): < 31.6 nM
- IC50 (second compound 10 µM): < 31.6 nM
- viability, T/C [1]: 107%
- viability, T/C [2]: 98.9%
- viability, T/C [3]: 92.3%
- viability, T/C [4]: 99.7%
- viability, T/C [5]: 96.1%
- viability, T/C [6]: 110%
- viability, T/C [7]: 59%
- viability, T/C [8]: 63.5%
- viability, T/C [9]: 56%
- viability, T/C [10]: 57.2%
- viability, T/C [11]: 51.2%
- viability, T/C [12]: 63.9%
- viability, T/C [13]: 42.1%
- viability, T/C [14]: 61.1%
- viability, T/C [15]: 49.5%
- viability, T/C [16]: 45.2%
- viability, T/C [17]: 50%
- viability, T/C [18]: 56.6%
- viability, T/C [19]: 45.1%
- viability, T/C [20]: 51.3%
- viability, T/C [21]: 42.4%
- viability, T/C [22]: 49.3%
- viability, T/C [23]: 52.6%
- viability, T/C [24]: 49.8%
- viability, T/C [25]: 45.5%
- viability, T/C [26]: 38.5%
- viability, T/C [27]: 42.4%
- viability, T/C [28]: 42.2%
- viability, T/C [29]: 55.4%
- viability, T/C [30]: 41.6%
- viability, T/C [31]: 39.1%
- viability, T/C [32]: 41.8%
- viability, T/C [33]: 42.8%
- viability, T/C [34]: 47.8%
- viability, T/C [35]: 40.8%
- viability, T/C [36]: 39.8%
